{
  "source": "patent US11738030B2",
  "about": "“Treatments for disturbed cerebral homeostasis” (Aneuryst, Inc., priority 2021, dated 2023)",
  "key": {"[1]": {"test_system": "adult male Sprague-Dawley rats", "test": "Brain water content after endovascular perforation in rats", "type": "in vivo, rat", "settings": "one treatment, 24 h", "protocol": "A sharpened 4-0 nylon suture was introduced into the left internal carotid artery of 92 adult male Sprague-Dawley rats weighing […]. In 65 of the 92 rats, the bifurcation of the anterior and middle cerebral arteries was endovascularly perforated; in the remaining 27 rats, the suture was withdrawn without perforation.\nAt 0.5 hours after the procedure, 34 of the 65 perforated rats were administered 1.5 ml of 0.9% saline (vehicle group), and the remaining 31 were administered 10 mg/kg hydroxyfasudil dissolved in 1.5 ml of 0.9% saline (hydroxyfasudil group). The 27 unperforated rats received neither vehicle nor […] (sham group).\n24 hours after the procedure, all rats were sacrificed. The animals' brains were removed and separated into left hemisphere, right hemisphere, cerebellum and brain stem. Each part was weighed immediately after removal (wet weight) and after drying in 100° C. for 72 h (dry weight). The percentage of water content was calculated as [(wet weight−dry weight)/wet weight]×100%."}, "[2]": {"test_system": "adult male Sprague-Dawley rats", "settings": "cited from earlier work; for Mean percentage of brain water content, Cerebellum / Mean percentage of brain water content, Left Hemisphere / Mean percentage of brain water content, Right Hemisphere: 24 hrs post-surgery"}, "[3]": {"test_system": "adult male Sprague-Dawley rats", "settings": "cited from earlier work; for Garcia neurological score: SAH + HF"}, "[4]": {"test": "Intraparenchymal ICP measurement in adult patient with suspected bacterial meningitis", "type": "in vivo", "settings": "60 mg intravenous infusion; adult patient with ICP>20 mmHg and suspected bacterial meningitis", "protocol": "In an adult patient with an ICP>20 mmHg and suspected bacterial meningitis as determined by lumbar puncture, one would administer by intravenous infusion 60 mg fasudil hydrochloride. One would place an intraparenchymal device to measure ICP in the patient."}, "[5]": {"settings": "one treatment, 10 mg/kg at 0.5 h after perforation, 10 mg/kg"}, "[6]": {"settings": "one treatment, 10 mg/kg at 0.5 h after perforation, listed as HF, 10 mg/kg"}, "[7]": {"settings": "two treatments instead of one, and measurements at 72 hours after perforation"}},
  "note": "Structures can show the parent of a compound that is named as a salt. Where two headings read alike, the source gives them in different places.",
  "data": [
    {"smiles": "O=c1[nH]ccc2c(S(=O)(=O)N3CCCNCC3)cccc12", "note": "[hydroxyfasudil]", "values": [
      {"measurement": "Increase in water content versus sham group, right hemisphere", "setting": "[1]; vehicle increase 0.5%", "result": "about 0.25%"},
      {"measurement": "Increase in water content versus sham group, cerebellum", "setting": "[1]; vehicle increase 0.6%", "result": "about 0.2%"},
      {"measurement": "Increase in water content versus sham group, left hemisphere", "setting": "[1]; vehicle increase 0.7%", "result": "about 0.3%"},
      {"measurement": "Improvement in water content increase, left hemisphere", "setting": "[1]; versus vehicle, p<0.01", "result": "about 57%"},
      {"measurement": "Improvement in water content increase, right hemisphere", "setting": "[1]; versus vehicle, p<0.01", "result": "about 70%"},
      {"measurement": "Improvement in water content increase, cerebellum", "setting": "[1]; versus vehicle, p<0.05", "result": "about 67%"},
      {"measurement": "Mean percentage of brain water content, Cerebellum", "setting": "[2]; [5]", "result": "~78.7", "unit": "%"},
      {"measurement": "Mean percentage of brain water content, Left Hemisphere", "setting": "[2]; [5]", "result": "~79.3", "unit": "%"},
      {"measurement": "Mean percentage of brain water content, Right Hemisphere", "setting": "[2]; [5]", "result": "~79.25", "unit": "%"},
      {"measurement": "Mean percentage of brain water content, Cerebellum", "setting": "[2]; [6]", "result": 78.7, "unit": "%"},
      {"measurement": "Mean percentage of brain water content, Left Hemisphere", "setting": "[2]; [6]", "result": 79.3, "unit": "%"},
      {"measurement": "Mean percentage of brain water content, Right Hemisphere", "setting": "[2]; [6]", "result": 79.35, "unit": "%"},
      {"measurement": "Difference in brain water content between vehicle group and hydroxyfasudil group", "setting": "[2]; [7]", "result": "failed to demonstrate any significant differences"},
      {"measurement": "Mean percentage of brain water content, Cerebellum", "setting": "[2]; two treatments", "result": 78.84, "unit": "%"},
      {"measurement": "Mean percentage of brain water content, Left Hemisphere", "setting": "[2]; two treatments", "result": 79.3, "unit": "%"},
      {"measurement": "Mean percentage of brain water content, Right Hemisphere", "setting": "[2]; two treatments", "result": 79.25, "unit": "%"},
      {"measurement": "Garcia neurological score", "setting": "[3]; 1 treatment, 24 hrs, score out of 18", "result": 14},
      {"measurement": "Garcia neurological score", "setting": "[3]; 1 treatment, 72 hrs", "result": 14},
      {"measurement": "Garcia neurological score", "setting": "[3]; 2 treatments, 24 hrs", "result": 15.5},
      {"measurement": "Difference in neurological performance between vehicle group and hydroxyfasudil group", "setting": "[3]; [7]", "result": "failed to demonstrate any significant differences"}
    ]},
    {"smiles": "O=S(=O)(c1cccc2cnccc12)N1CCCNCC1", "note": "[fasudil hydrochloride]", "values": [
      {"measurement": "ICP upon fasudil infusion", "setting": "[4]", "result": "reduction of ICP"}
    ]}
  ]
}
